Test results taken from publication PMC11467302, “Discovery of a potent, Kv7.3-selective potassium channel opener from a Polynesian traditional botanical anticonvulsant” (Communications Chemistry, 2024).

Experiments:
Assay type in all cases: cell-based
Kv7.3 [1] = biological target: T1, Kv7.3 (Homo sapiens, UniProt O43525); test: two-electrode voltage clamp, shift of V0.5act, dose response
T1 construct: gene KCNQ3; Kv7.2/3 heteromer expressed in Xenopus oocytes; with Kv7.2 (KCNQ2)

Kv7.3* = biological target: T2, Kv7.3* (Homo sapiens, UniProt O43525, A315T); test: as above
T2 construct: gene KCNQ3; Kv7.3* homomer expressed in Xenopus oocytes
T2 sequence (O43525 1-872 A315T): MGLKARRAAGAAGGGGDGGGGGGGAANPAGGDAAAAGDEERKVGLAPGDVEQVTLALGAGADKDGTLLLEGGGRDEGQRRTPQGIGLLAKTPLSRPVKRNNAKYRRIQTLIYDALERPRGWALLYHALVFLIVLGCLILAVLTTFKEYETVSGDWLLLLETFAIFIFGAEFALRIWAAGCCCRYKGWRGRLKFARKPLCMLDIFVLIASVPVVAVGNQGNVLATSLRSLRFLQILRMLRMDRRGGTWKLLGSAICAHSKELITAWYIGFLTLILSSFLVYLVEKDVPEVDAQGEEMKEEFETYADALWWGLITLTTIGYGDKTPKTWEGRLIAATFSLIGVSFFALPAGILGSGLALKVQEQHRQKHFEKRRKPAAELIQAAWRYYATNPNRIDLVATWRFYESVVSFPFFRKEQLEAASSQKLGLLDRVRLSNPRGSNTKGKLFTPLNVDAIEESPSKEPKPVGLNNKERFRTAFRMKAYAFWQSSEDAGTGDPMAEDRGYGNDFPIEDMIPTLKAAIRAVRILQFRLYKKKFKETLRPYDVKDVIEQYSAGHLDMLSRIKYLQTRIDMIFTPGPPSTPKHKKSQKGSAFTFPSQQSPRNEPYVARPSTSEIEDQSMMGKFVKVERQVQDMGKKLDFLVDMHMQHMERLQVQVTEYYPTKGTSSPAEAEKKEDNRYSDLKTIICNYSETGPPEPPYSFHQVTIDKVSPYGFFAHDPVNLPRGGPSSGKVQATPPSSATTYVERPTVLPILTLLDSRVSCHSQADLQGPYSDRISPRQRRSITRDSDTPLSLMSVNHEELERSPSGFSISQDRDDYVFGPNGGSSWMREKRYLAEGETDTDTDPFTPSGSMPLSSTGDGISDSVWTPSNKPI

Kv7.3 [2] = biological target: T1, Kv7.3; test: two-electrode voltage clamp at […], shift of V0.5act

T1 sequence (O43525 whole entry): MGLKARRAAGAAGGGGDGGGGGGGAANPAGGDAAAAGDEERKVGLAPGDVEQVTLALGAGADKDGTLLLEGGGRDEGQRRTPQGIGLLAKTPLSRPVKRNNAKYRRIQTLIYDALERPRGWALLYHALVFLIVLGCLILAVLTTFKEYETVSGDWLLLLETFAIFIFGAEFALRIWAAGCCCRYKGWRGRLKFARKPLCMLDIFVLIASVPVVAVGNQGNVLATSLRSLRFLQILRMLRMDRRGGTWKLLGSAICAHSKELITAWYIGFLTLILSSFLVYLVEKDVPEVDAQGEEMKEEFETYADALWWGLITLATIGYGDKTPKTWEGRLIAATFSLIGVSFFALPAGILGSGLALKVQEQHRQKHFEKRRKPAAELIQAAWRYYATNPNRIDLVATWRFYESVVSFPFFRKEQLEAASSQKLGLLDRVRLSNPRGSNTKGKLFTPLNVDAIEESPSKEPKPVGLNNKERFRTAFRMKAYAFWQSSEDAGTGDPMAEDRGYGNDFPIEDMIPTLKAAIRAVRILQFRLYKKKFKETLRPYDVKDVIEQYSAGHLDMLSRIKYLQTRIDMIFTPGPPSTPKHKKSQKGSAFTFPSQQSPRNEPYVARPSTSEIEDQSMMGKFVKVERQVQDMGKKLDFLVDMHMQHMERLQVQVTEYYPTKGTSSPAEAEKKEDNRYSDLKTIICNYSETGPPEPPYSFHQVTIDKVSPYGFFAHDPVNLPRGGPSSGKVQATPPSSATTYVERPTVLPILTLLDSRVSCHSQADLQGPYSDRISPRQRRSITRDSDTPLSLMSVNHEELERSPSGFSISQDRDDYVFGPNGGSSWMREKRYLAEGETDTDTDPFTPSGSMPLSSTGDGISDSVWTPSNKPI
T1 sequence (O43526 whole entry partner): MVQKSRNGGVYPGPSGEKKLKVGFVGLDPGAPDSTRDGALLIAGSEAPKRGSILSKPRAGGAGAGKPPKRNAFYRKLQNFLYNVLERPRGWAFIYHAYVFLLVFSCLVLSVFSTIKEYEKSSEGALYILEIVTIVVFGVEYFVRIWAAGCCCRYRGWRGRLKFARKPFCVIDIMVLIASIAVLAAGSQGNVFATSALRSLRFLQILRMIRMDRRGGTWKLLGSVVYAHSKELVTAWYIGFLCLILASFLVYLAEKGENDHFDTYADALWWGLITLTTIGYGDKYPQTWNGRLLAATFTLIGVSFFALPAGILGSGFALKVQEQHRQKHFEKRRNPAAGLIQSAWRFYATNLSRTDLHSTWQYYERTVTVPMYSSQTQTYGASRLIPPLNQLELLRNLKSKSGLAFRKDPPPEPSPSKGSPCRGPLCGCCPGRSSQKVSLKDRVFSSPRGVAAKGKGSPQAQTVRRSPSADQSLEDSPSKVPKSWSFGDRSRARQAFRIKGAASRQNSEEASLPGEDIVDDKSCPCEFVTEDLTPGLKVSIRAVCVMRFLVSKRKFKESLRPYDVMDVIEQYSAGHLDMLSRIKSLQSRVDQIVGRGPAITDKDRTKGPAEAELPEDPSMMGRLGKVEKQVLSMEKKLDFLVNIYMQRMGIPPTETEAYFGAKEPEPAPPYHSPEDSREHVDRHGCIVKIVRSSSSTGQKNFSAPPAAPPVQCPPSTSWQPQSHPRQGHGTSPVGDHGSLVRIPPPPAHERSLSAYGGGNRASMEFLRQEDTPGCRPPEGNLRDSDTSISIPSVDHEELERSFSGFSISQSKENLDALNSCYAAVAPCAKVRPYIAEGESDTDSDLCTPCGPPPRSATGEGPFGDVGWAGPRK

EC50 (Kv7.3 [1]) | EC50 (Kv7.3*) | SMILES | two-electrode voltage clamp at 100 μM, shift of V0.5act (Kv7.3 [2])
2.8 nM | 0.79 nM | O=C(O)c1cc(O)ccc1O [GA, gentisic acid] | 
 |  | O=S(=O)(O)c1cc(O)ccc1O [calcium dobesilate] | one analog of GA did exhibit similar efficacy to that of GA—the sulfonic acid, calcium dobesilate
